# Columns and labels:
# T cells [1] = test: HD3 TCR insertion within TRAC in T cells, flow cytometry; assay type: cell-based, human; details: Spy Cas9 + Compound 4, HD3 TCR AAV, day 7
# Experimental: 48 hours post-activation, T cells were harvested, centrifuged at 500 g for 5 min, and resuspended at a concentration of 6.41×10^5 T cells/mL in T cell plating media (TCPM): a serum-free version of TCGM containing 400 U/mL recombinant human interleukin-2 (Peprotech, Cat. 200-02), 10 ng/mL recombinant human interleukin 7 (Peprotech, Cat. 200-07), and 10 ng/mL recombinant human interleukin 15 (Peprotech, Cat. 200-15). 50 μL of T cells in TCPM (3.2×10^4 T cells) were added per well to be treated in flat-bottom 96-well plates.
# LNPs were generated as described in Example 1 at a ratio of 50/38.5/10/1.5 (Lipid A/cholesterol/DSPC/PEG2k-DMG).
# Mix “A” was serially diluted 1:2 in TCTM, and mixed 1:1 by volume with mix “B”. 25 μL of the resulting solution was added to 3.2×10^4 T cells in 96-well plates.
# Next, a repair template in the form of an adeno-associated virus (AAV) encoding the HD3 TCR (SEQ ID NO: 18 was diluted in TCTM to 3.84×10^11 genome copies/mL in the presence or absence of Compound 4 diluted to 2 μM. 25 μL of the resulting solution was added to T cells that were treated with LNPs in the prior step. To enable editing assessments by NGS without the interference of repair templates, an arm of this experiment received 25 μL of TCTM with or without Compound 4 diluted to 2 μM in the absence of AAVs.
# Following the addition of LNPs, repair templates and Compound 4, T cells were incubated at 37° C. for 48 hours, at which time T cells were centrifuged at 500 g for 5 min, resuspended in 200 μL of TCGM and returned to the incubator.
# Also on day 4 post-treatment, cells that received AAV templates were mixed and sub-cultured at a 1:4 ratio (v/v) in TCGM. On day 7 post-treatment, cells that received AAV templates were evaluated by flow cytometry.
# On day 7 post-LNP treatment, 50 μL of cells were transferred to U-bottom 96-well plates and spun down for 5 min at 500 g. The supernatant was discarded, cells were resuspended in 100 μL of FACS buffer containing Viakrome 808 (Beckman C., Cat. C36628) (1:100), PC5.5 anti-CD3 (Biolegend, Cat. 317336) (1:200), BV421 anti-CD4 (Biolegend, Cat. 317434) (1:100), BV785 anti-CD8 (Biolegend, Cat. 301046) (1:100), and anti-V07.2 (Beckman C., IM3604) (1:50) and stained for 30 min at 4° C. in the dark. Cells were washed once with 200 μL of FACS buffer, resuspended in 100 μL of FACS buffer and processed on a Cytoflex LX flow cytometer.
# T cells [2] = test: Insertion percent in T cells of Example 17; assay type: cell-based, human; details: T cells from Example 12; FIG. 9B
# Excerpt: On day 8 post-editing, T cells from Example 12 from the untreated, unedited, Compound 3 and Compound 4 guides samples were collected, spun down and the pellets were directly used as input material for gDNA isolation using “Zymo Quick DNA/RNA Mag Beads Kit” (Zymo Cat. R2131). The UnIT structural variant characterization assay was applied to these gDNA samples. High molecular weight genomic DNA is simultaneously fragmented and sequence-tagged (‘tagmented’) with the Tn5 transposase and an adapter with a partial Illumina P5 sequence and a 12 bp unique molecular identifier (UMI). Two sequential PCRs using a primer to P5 and hemi-nested gene specific primers (GSP) imparting the Illumina the P7 sequence to create two Illumina compatible NGS libraries per sample (Illumina, Ref 15033624). Sequencing across both directions of the CRISPR/Cas9 targeted cut site with the two libraries allows the inference and quantification of structural variants in DNA repair outcomes after genome editing. If the two fragments were aligned to different chromosomes, the SV was classified as an “inter-chromosomal translocation.” The magnitude of structural variation was shown in FIG. 9A and Table 18.
# TRBC = test: Off-target site validation, rhAmpSeq; details: gRNA G016239 targeting TRBC; of 92 off-target sites; with the named DNA-PKI or none
compound,measurement,setting,value
"Cc1cc2ncnn2cc1Nc1ncc2c(n1)n(C1CCC3(CC1)CC3)c(=O)n2C [Compound 4, 7-methyl-2-((7-methyl-[1,2,4]triazolo[1,5-a]pyridin-6-yl)amino)-9-(spiro[2.5]octan-6-yl)-7,9-dihydro-8H-purin-8-one]",Mean CD3^+ Vβ7.2^+ T Cells %,T cells [1]; sgRNA 0 μg/mL,0.79%
same,Mean CD3^+ Vβ7.2^+ T Cells %,T cells [1]; sgRNA 0.026 μg/mL,35.20%
same,Mean CD3^+ Vβ7.2^+ T Cells %,T cells [1]; sgRNA 0.052 μg/mL,44.50%
same,Mean CD3^+ Vβ7.2^+ T Cells %,T cells [1]; sgRNA 0.104 μg/mL,52.60%
same,Mean CD3^+ Vβ7.2^+ T Cells %,T cells [1]; sgRNA 0.209 μg/mL,56.10%
same,Mean CD3^+ Vβ7.2^+ T Cells %,T cells [1]; sgRNA 0.418 μg/mL,53.80%
same,Mean CD3^+ Vβ7.2^+ T Cells %,T cells [1]; sgRNA 0.835 μg/mL,53.30%
same,Mean CD3^+ Vβ7.2^+ T Cells %,T cells [1]; sgRNA 1.67 μg/mL,49.65%
same,Insertion Percent (Average),T cells [2],67.82%
same,Sites Validated,TRBC,0

# Source: patent US20240300977A1, “INHIBITORS OF DNA-DEPENDENT PROTEIN KINASE AND COMPOSITIONS AND USES THEREOF” (Intellia Therapeutics, Inc., priority 2021, published 2024)
